Like-named read-outs stand apart in the source and are kept apart here. Ends that are not written are not given here. Peptide text beside a SMILES is read from it.
How the values were obtained:
[1] = target: T1, HLA-DR1 (DRA*01:01/DRB1*01:01) (Homo sapiens, UniProt P01903+P01911, A100R/D57E/F55L/F60I/F76Y/I96L/L162R/M171V/P40L/Q125E/R42F/V115G/Y59C); test: biochemical; assay type: binding; conditions: for inhibition at 0.256 µM / inhibition at 1.28 µM / inhibition at 6.4 µM / inhibition at 32 µM / inhibition at 160 µM / inhibition at 0.000256 µM / inhibition at 0.00128 µM / inhibition at 0.0064 µM / inhibition at 0.032 µM / inhibition at 0.16 µM / inhibition at 0.8 µM / inhibition at 4 µM / inhibition at 20 µM: read-out: fraction of labeled HA binding inhibited
T1 construct: HLA-DR1 (DRA*01:01/DRB1*01:01) extracellular domain was expressed in Drosophila S2 cells; made in house

[2] = complex with DR2b, 2 minutes of UV exposure; cited from earlier work
Source text: In the only previous report in which a photocleavable peptide was used with a MHC-II protein, the complex studied was DR2b (HLA-DRB1*15:01) with a peptide derived from human myelin basic protein (MBP85-99) with the photocleavable group replacing the residue at P4 position (ENPVVHFXKNIVTPR). […] Thus in this case the peptide is cleaved efficiently and the ...

[3] = target: DR1 (Homo sapiens, UniProt P01903+P01911, A100R/D57E/F55L/F60I/F76Y/I96L/L162R/M171V/P40L/Q125E/R42F/V115G/Y59C); conditions: binding to DR1, estimated; cited from earlier work
[4] = target: HLA-DR1 (DRA*01:01/DRB1*01:01) extracellular domain (human); test: fluorescence polarisation

## CC(=O)N[C@@H](Cc1ccc(O)cc1)C(=O)N[C@H](C(=O)N[C@@H](CCCCN)C(=O)NC(CC(=O)N[C@@H](CC(N)=O)C(=O)N[C@H](C(=O)N[C@@H](CC(C)C)C(=O)N[C@@H](CCCNC(=N)N)C(=O)N[C@@H](CC(C)C)C(=O)N[C@@H](C)C(=O)N[C@H](C(=O)O)[C@@H](C)O)[C@@H](C)O)c1ccccc1[N+](=O)[O-])C(C)C (some centres unmarked) [Ac-photoHA-Δ1–2]
[1]; 72 h
  inhibition at 0.256 µM: -1.47%
  inhibition at 1.28 µM: -1.61%
  inhibition at 6.4 µM: -1.21%
  inhibition at 32 µM: 3.82%
  inhibition at 160 µM: 39.8%

## CC(=O)N1CCC[C@H]1C(=O)N[C@@H](CCCNC(=N)N)C(=O)N[C@@H](Cc1ccc(O)cc1)C(=O)N[C@H](C(=O)N[C@@H](CCCCN)C(=O)NC(CC(=O)N[C@@H](CC(N)=O)C(=O)N[C@H](C(=O)N[C@@H](CC(C)C)C(=O)N[C@@H](CCCNC(=N)N)C(=O)N[C@@H](CC(C)C)C(=O)N[C@@H](C)C(=O)N[C@H](C(=O)O)[C@@H](C)O)[C@@H](C)O)c1ccccc1[N+](=O)[O-])C(C)C (some centres unmarked) [Ac-photoHA]
[1]; 72 h
  inhibition at 0.256 µM: -1.71%
  inhibition at 1.28 µM: -3.02%
  inhibition at 6.4 µM: -0.583%
  inhibition at 32 µM: 10%
  inhibition at 160 µM: 59%
[1]; competition with 25 nM Alexa488-labeled HA for DR1 (100 nM per method, 150 nM per Fig 7/8 legends), 37°C, 72 h, fluorescence polarization, mean ± SD of two experiments, SD, read-out: IC50
  IC50: 0.134 ± 0.002 µM

## CSCC[C@H](NC(=O)[C@H](CCC(N)=O)NC(=O)[C@H](CC(C)C)NC(=O)[C@H](Cc1c[nH]cn1)NC(C)=O)C(=O)NC(CC(=O)N[C@@H](CC(N)=O)C(=O)N[C@@H](C)C(=O)N[C@@H](CC(C)C)C(=O)N[C@@H](C)C(=O)N[C@@H](CC(C)C)C(=O)O)c1ccccc1[N+](=O)[O-] (some centres unmarked) [Peptide L1MxN] (HELM PEPTIDE1{[ac].H.L.Q.M.[O=C(CC(N[*:1])c1ccccc1[N+](=O)[O-])[*:2]].N.A.L.A.L}$$$$V2.0)
[1]; 72 h
  inhibition at 0.000256 µM: -0.215%
  inhibition at 0.00128 µM: -0.407%
  inhibition at 0.0064 µM: -1.67%
  inhibition at 0.032 µM: -1.44%
  inhibition at 0.16 µM: 2.63%
  inhibition at 0.8 µM: 13%
  inhibition at 4 µM: 49.4%
  inhibition at 20 µM: 86.9%
[1]; SD
  IC50: 4.1 ± 0.298 µM

## CSCC[C@H](NC(=O)[C@H](CCC(N)=O)NC(=O)[C@@H](NC(=O)[C@H](Cc1c[nH]cn1)NC(C)=O)C(C)C)C(=O)NC(CC(=O)N[C@@H](CC(N)=O)C(=O)N[C@@H](C)C(=O)N[C@@H](CC(C)C)C(=O)N[C@@H](C)C(=O)N[C@@H](CC(C)C)C(=O)O)c1ccccc1[N+](=O)[O-] (some centres unmarked) [Peptide V1MxN] (HELM PEPTIDE1{[ac].H.V.Q.M.[O=C(CC(N[*:1])c1ccccc1[N+](=O)[O-])[*:2]].N.A.L.A.L}$$$$V2.0)
[1]; 72 h
  inhibition at 0.000256 µM: -0.0001%
  inhibition at 0.00128 µM: 3%
  inhibition at 0.0064 µM: 5.87%
  inhibition at 0.032 µM: 4.84%
  inhibition at 0.16 µM: 1.29%
  inhibition at 0.8 µM: 10.9%
  inhibition at 4 µM: 34.5%
  inhibition at 20 µM: 92.8%
[1]; SD
  IC50: 5.4 ± 0.341 µM

## CSCC[C@H](NC(=O)[C@H](CCC(N)=O)NC(=O)[C@H](Cc1ccc(O)cc1)NC(C)=O)C(=O)NC(CC(=O)N[C@@H](CC(N)=O)C(=O)N[C@@H](C)C(=O)N[C@@H](CC(C)C)C(=O)N[C@@H](C)C(=O)N[C@@H](CC(C)C)C(=O)O)c1ccccc1[N+](=O)[O-] (some centres unmarked) [Peptide Y1MxN] (HELM PEPTIDE1{[ac].Y.Q.M.[O=C(CC(N[*:1])c1ccccc1[N+](=O)[O-])[*:2]].N.A.L.A.L}$$$$V2.0)
[1]; 72 h, Fig 2, [Pep] 0.000256 uM, 100 nM DR1, 25 nM Alexa488-labeled HA, 3 days, FP, mean of two experiments in triplicate
  inhibition at 0.000256 µM: -1.47%
[1]; 72 h, Fig 2, [Pep] 0.00128 uM, 100 nM DR1, 25 nM Alexa488-labeled HA, 3 days, FP, mean of two experiments in triplicate
  inhibition at 0.00128 µM: 4.96%
[1]; 72 h, Fig 2, [Pep] 0.0064 uM, 100 nM DR1, 25 nM Alexa488-labeled HA, 3 days, FP, mean of two experiments in triplicate
  inhibition at 0.0064 µM: -1.42%
[1]; 72 h, Fig 2, [Pep] 0.032 uM, 100 nM DR1, 25 nM Alexa488-labeled HA, 3 days, FP, mean of two experiments in triplicate
  inhibition at 0.032 µM: 13.4%
[1]; 72 h, Fig 2, [Pep] 0.16 uM, 100 nM DR1, 25 nM Alexa488-labeled HA, 3 days, FP, mean, n = 3
  inhibition at 0.16 µM: 39.7%
[1]; 72 h, Fig 2, [Pep] 0.8 uM, 100 nM DR1, 25 nM Alexa488-labeled HA, 3 days, FP, mean of two experiments in triplicate
  inhibition at 0.8 µM: 69.7%
[1]; 72 h, Fig 2, [Pep] 4 uM, 100 nM DR1, 25 nM Alexa488-labeled HA, 3 days, FP, mean of two experiments in triplicate
  inhibition at 4 µM: 90%
[1]; 72 h, Fig 2, [Pep] 20 uM, 100 nM DR1, 25 nM Alexa488-labeled HA, 3 days, FP, mean of two experiments in triplicate
  inhibition at 20 µM: 96.1%

## CC(C)C[C@H](NC(=O)[C@H](CCCNC(=N)N)NC(=O)[C@H](CC(C)C)NC(=O)[C@@H](NC(=O)[C@H](CC(N)=O)NC(=O)CC(NC(=O)[C@H](CCCCN)NC(=O)[C@@H](NC(=O)[C@@H](N)Cc1ccc(O)cc1)C(C)C)c1ccccc1[N+](=O)[O-])[C@@H](C)O)C(=O)N[C@@H](C)C(=O)N[C@H](C(=O)O)[C@@H](C)O (some centres unmarked) [photoHA-Δ1–2]
[1]; 72 h
  inhibition at 0.256 µM: -1.94%
  inhibition at 1.28 µM: -1.83%
  inhibition at 6.4 µM: -1.22%
  inhibition at 32 µM: -0.549%
  inhibition at 160 µM: 9.88%

## CC(C)C[C@H](NC(=O)[C@H](CCCNC(=N)N)NC(=O)[C@H](CC(C)C)NC(=O)[C@@H](NC(=O)[C@H](CC(N)=O)NC(=O)CC(NC(=O)[C@H](CCCCN)NC(=O)[C@@H](NC(=O)[C@H](Cc1ccc(O)cc1)NC(=O)[C@H](CCCNC(=N)N)NC(=O)[C@@H]1CCCN1)C(C)C)c1ccccc1[N+](=O)[O-])[C@@H](C)O)C(=O)N[C@@H](C)C(=O)N[C@H](C(=O)O)[C@@H](C)O (some centres unmarked) [photoHA]
[1]; 72 h
  inhibition at 0.256 µM: -1.65%
  inhibition at 1.28 µM: -2.9%
  inhibition at 6.4 µM: -1.3%
  inhibition at 32 µM: 22.2%
  inhibition at 160 µM: 66.3%
[1]; SD
  IC50: 0.092 ± 0.002 µM

## Ac-PRYVKQNTLRLAT [HA, reference compound]
[1]; 72 h
  inhibition at 0.0064 µM: 7.96%
  inhibition at 0.032 µM: 48.7%
  inhibition at 0.16 µM: 70.6%
  inhibition at 0.256 µM: -1.7%
  inhibition at 0.8 µM: 95%
  inhibition at 1.28 µM: -1.55%
  inhibition at 4 µM: 99%
  inhibition at 6.4 µM: -0.259%
  inhibition at 20 µM: 104%
  inhibition at 32 µM: 29.5%
  inhibition at 160 µM: 76.5%
[1]; competition with 25 nM Alexa488-labeled HA for DR1 (100 nM per method, 150 nM per Fig 7/8 legends), 37°C, 72 h, fluorescence polarization, mean ± SD of two experiments, read-out: IC50
  IC50: 0.04 µM

## ENPVVHFXKNIVTPR
[2]
  parent peptide after UV exposure: almost undetectable

## HA306-318: immunodominant viral epitope from influenza virus hemagglutinin (Ac-PRYVKQNTLRLAT; not fully specified (residue 5); also: label on K5, type not given here)
[3]
  Kd: 0.013 µM

## L1MxN photocleavable peptide (Ac-HLQMxNALAL)
[4]
  IC50: 4.1 µM

## V1MxN photocleavable peptide (Ac-HVQMxNALAL)
[4]
  IC50: 5.4 µM

## Y1MxN photocleavable peptide (Ac-YQMxNALAL)
[4]
  IC50: 0.323 µM
